# Tests used:
# [1] = stability in rat intestinal fluid (LC-MS); format: in vitro ADME
# Description: (§1) Peptides administered in vivo are susceptible to protease cleavage, particularly those administered to the intestine. PIK, D-PIK, D-PIK(reversed) and D-PIK(int.) were each incubated with rat intestinal fluid and also with Caco-2 intestinal epithelial cell extracts, which contain a mixture brush border and cytosolic proteases. Luminal intestinal secretions were obtained by flushing isolated rat intestines (duodenum to ileum) with 10 ml of 20 mM of N-2-Hydroxyethylpiperazine-N′-2-ethanesulfonic acid (HEPES) buffer, pH 7.4. Discharged contents were centrifuged to remove solids and the supernatant filtered through a 0.20 μm filter prior to determining total protein content. Confluent Caco-2 cells were rinsed with PBS, lifted by brief trypsin treatment into a small volume of Dulbecco's modified Eagles's medium (DMEM) and washed twice with phosphate buffered saline (PBS). The final cell pellet was re-suspended in a small volume of lysis buffer (50 mM Tris-HCL, 2 mM EDTA, 20% glycerol at pH 7.4) and sonicated on ice. Protein concentrations of isolated intestinal fluid and lysed Caco-2 cell extracts were determined using the Bio-Rad Protein Assay. Peptide inhibitors of MLCK (1 mg/ml) in PBS were mixed with 0.1 mg protein of intestinal secretions or Caco-2 cell lysate on ice and incubated for at 4° C. and 37° C., respectively. At selected times, 100 μl aliquots were withdrawn and mixed with an equal volume of 0.5% TFA (in 50/50 water/acetonitrile) to terminate enzymatic reactions. Samples were centrifuged and supernatants analyzed by LC-MS analysis to determine the cleavage pattern of PIK.
# (§2) Residual peptide content was assessed by liquid chromatography-mass spectrometry (Tiller et al., Anal Bioanal Chem 2003; 377:788-802) and positive ion electrospray ionization.
# The peptides listed in Table 2 (0.1 mg) were incubated with rat intestinal fluid (0.2 mg) at 37° C. for 0.5 min to 6 hours.
# [2] = stability in Caco-2 intestinal epithelial cell extracts (LC-MS); format: in vitro ADME; conditions: Caco-2 cell extracts
# Description: as §1, with “The final cell pellet was re-suspended in a small volume of lysis buffer (50 mM Tris-HCL, 2 mM EDTA, 20% glycerol at pH 7.4) and sonicated on ice.” left out, “Peptide inhibitors of MLCK (1 mg/ml) in PBS were mixed with 0.1 mg protein of intestinal secretions or Caco-2 cell lysate on ice and incubated for at 4° C. and 37° C., respectively. At selected times, 100 μl aliquots were withdrawn and mixed with an equal volume of 0.5% TFA (in 50/50 water/acetonitrile) to terminate enzymatic reactions.” left out
# as §2
substance,measurement,setting,value
"Ac-RKKYKYRRK-NH2 [PIK, Arg-Lys-Lys-Tyr-Lys-Tyr-Arg-Arg-Lys]",half-life,"[1]; 0.1 mg peptide, rat intestinal fluid (0.2 mg), 37° C.",12 s
same,initial cleavage pattern,[1]; rat intestinal fluid,peptide bonds at the C-terminal sides of K and R residues of PIK were initially cleaved
same,hydrolysis on extended incubation,"[1]; rat intestinal fluid, extended incubations",total hydrolysis
same,cleavage pattern,[2],cleaved PIK across the central palindromic sequence
